Data on 27 compounds can be found in patent US11472815B2, “1,4-diphenyl-1H-imidazole and 2,4-diphenylthiazole derivatives and preparation method therefor and use thereof” (SOUTHERN MEDICAL UNIVERSITY, priority 2018, dated 2022).

As a reminder, the EC50 is the concentration needed to bring the measured effect to its halfway point. Read a low EC50 as an effect from little substance.

SMILES strings stand for the structures.

The target of the first experiment is TLR1/2 (Homo sapiens (Human), UniProt O60603+Q15399). Put plainly: Detection of TLR1/2 activation activity (SEAP signal) using TLR1/2 HEK BLUE cells. The experiment is classed as cell-based.
Chain of TLR1/2 (Q15399 25-786): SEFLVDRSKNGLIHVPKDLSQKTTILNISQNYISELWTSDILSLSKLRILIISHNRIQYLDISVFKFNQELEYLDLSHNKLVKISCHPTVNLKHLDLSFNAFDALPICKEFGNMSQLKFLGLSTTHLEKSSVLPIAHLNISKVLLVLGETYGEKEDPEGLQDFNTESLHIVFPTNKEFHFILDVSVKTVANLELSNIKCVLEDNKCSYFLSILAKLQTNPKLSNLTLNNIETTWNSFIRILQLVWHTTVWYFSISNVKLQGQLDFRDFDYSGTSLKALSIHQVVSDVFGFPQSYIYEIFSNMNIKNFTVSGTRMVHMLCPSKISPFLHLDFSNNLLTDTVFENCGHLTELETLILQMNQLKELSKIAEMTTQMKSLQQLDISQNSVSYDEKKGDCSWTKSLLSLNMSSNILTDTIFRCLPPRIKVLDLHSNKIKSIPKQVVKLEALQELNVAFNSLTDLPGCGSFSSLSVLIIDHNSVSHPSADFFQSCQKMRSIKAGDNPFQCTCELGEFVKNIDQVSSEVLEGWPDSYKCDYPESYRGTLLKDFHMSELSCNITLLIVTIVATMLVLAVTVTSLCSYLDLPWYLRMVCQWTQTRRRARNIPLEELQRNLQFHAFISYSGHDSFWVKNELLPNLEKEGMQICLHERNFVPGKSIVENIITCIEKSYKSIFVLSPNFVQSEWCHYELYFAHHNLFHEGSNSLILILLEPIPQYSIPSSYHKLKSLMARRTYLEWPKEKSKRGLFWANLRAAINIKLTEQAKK
Chain of TLR1/2 (O60603 19-784): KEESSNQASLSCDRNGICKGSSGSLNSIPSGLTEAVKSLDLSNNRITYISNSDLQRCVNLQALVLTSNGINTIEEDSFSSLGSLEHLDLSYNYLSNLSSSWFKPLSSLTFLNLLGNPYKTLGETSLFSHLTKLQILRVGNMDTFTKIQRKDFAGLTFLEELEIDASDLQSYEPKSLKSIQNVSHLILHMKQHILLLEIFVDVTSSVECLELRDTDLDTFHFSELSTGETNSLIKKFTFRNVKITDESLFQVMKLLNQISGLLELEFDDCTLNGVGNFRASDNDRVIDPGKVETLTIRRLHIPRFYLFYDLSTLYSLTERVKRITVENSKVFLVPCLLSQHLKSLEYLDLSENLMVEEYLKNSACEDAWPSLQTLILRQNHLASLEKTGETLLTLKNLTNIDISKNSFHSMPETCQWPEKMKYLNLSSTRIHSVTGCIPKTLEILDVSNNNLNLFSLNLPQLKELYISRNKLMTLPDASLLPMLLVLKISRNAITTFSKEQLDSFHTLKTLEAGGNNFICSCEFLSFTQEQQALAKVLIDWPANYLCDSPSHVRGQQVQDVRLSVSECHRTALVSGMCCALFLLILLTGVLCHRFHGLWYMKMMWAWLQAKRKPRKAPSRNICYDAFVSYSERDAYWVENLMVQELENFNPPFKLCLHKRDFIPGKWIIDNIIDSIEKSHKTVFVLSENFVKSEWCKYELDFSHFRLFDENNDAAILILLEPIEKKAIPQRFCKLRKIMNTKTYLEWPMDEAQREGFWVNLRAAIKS
Conditions: not given
The protocol:
TLR1/2 activation activity was detected using TLR1/2 HEK BLUE cells. TLR1/2 HEK BLUE cells were cultured in DMEM medium containing 10% fetal bovine serum, 1% penicillin and streptomycin, and incubated in a 37° C. cell incubator containing 5% CO2.
HEK BLUE TLR1/2 cells were spread in a 384-well plate at 20,000 cells/well, cultured at 37° C., 5% CO2 for 24 hours, 25 μL per well. When the cells grew well, 100 μM compound and doubling-diluted for 11 concentration gradients. After the cells were kept for 24 hours in the CO2 incubator, 40 μL of indigo blue solution was added to each well of the plate in the dark, and reading was conducted 4 times in an interval of 15 minutes at 620 nm to detect the signal intensity of SEAP in the cell supernatant.
As for `CNc1ccc([N+](=O)[O-])cc1-n1cnc(-c2ccc(C(F)(F)F)cc2O)c1` [Compound 22, 2-(1-(2-(methylamino)-5-nitrophenyl)-1H-imidazol-4-yl)-5-(trifluoromethyl)phenol], the “TLR1/2 activation (in words)” value is on record as “activates TLR1/2 activity in a concentration-dependent manner”.

The experiment is the same for the next values; noted with them: HEK BLUE TLR1/2 cells, 24 hours, SEAP read at 620 nm; highest concentration 100 μM; [‡] highest SEAP signal less than 50% of the activation value of compound 22.
The compound `CNc1c(Cl)cc([N+](=O)[O-])cc1-n1cnc(-c2ccc(C(F)(F)F)cc2O)c1` [Compound 26, 2-(1-(3-chloro-2-(methylamino)-5-nitrophenyl)-1H-imidazol-4-yl)-5-(trifluoromethyl)phenol] showed an EC50 of 192 ± 17.2 nM.

Turning to `CNc1ccc([N+](=O)[O-])cc1-n1cnc(-c2ccc(C(F)(F)F)cc2OCCCBr)c1` [Compound 32, 2-(4-(2-(3-bromopropoxy)-4-(trifluoromethyl)phenyl)-1H-imidazol-1-yl)-N-methyl-4-nitroaniline], the EC50 is greater than 1000 nM.

`CNc1ccc([N+](=O)[O-])cc1-n1cnc(-c2ccc(C(F)(F)F)cc2OC(C)=O)c1` [Compound 35, (1-(2-(methylamino)-5-nitrophenyl)-1H-imidazol-4-yl)-5-(trifluoromethyl)phenyl acetate] yielded an EC50 of 18.8 ± 3.65 nM.

Turning to `FC(F)(F)c1ccc(-c2csc(-c3cccc(C(F)(F)F)c3)n2)cc1` [Compound 4, 2-(3-(trifluoromethyl)phenyl)-4-(4-(trifluoromethyl)phenyl)thiazole], the 50% effective concentration (EC50) is greater than 1000 nM.

In turn, `CNc1ccc(S(C)(=O)=O)cc1-n1cnc(-c2ccc(C(F)(F)F)cc2O)c1` [Compound 23, 2-(1-(2-(methylamino)-5-(methylsulfonyl)phenyl)-1H-imidazol-4-yl)-5-(trifluoromethyl)phenol] had an EC50 of 5.14 ± 0.07 nM.

For `CNc1ccc([N+](=O)[O-])cc1-n1cnc(-c2ccc(C(F)(F)F)cc2OCC(N)=O)c1` [Compound 42, (2-(1-(2-(methylamino)-5-nitrophenyl)-1H-imidazo-4-yl)-5-(trifluoromethyl)phenoxy)acetamide], the EC50 was greater than 1000 nM.

With `CNc1ccc([N+](=O)[O-])cc1-n1cnc(-c2ccc(C(F)(F)F)cc2OCc2ccccc2)c1` [Compound 30, 2-(4-(2-(benzyloxy)-4-(trifluoromethyl)phenyl)-1H-imidazol-1-yl)-N-methyl-4-nitroaniline], the EC50 is greater than 1000 nM.

In the case of `Oc1cc(C(F)(F)F)ccc1-c1csc(-c2cc(C(F)(F)F)cc(C(F)(F)F)c2)n1` [Compound 17, 2-(2-(3,5-bis(trifluoromethyl)phenyl)thiazol-4-yl)-5-(trifluoromethyl)phenol], the “TLR1/2 activation activity EC50” value was “NA[†]”.

Take `CNc1ccc([N+](=O)[O-])cc1-n1cnc(-c2ccc(OC(F)(F)F)cc2O)c1` [Compound 21, 2-(1-(2-(methylamino)-5-nitrophenyl)-1H-imidazol-4-yl)-5-(trifluoromethoxy)phenol]: the EC50 was determined as 24.9 ± 6.15 nM.

`CCCCCCCCCCCC(=O)Oc1cc(C(F)(F)F)ccc1-c1cn(-c2cc([N+](=O)[O-])ccc2NC)cn1` [Compound 37, 2-(1-(2-(methylamino)-5-nitrophenyl)-1H-imidazol-4-yl)-5-(trifluoromethyl)phenyl dodecanoate] displayed an EC50 of 113 ± 12.7 nM. This EC50 lies about 4.5-fold higher than the previous one.

Turning to `CNC(=O)c1ccc(NC)c(-n2cnc(-c3ccc(C(F)(F)F)cc3O)c2)c1` [Compound 25, 3-(4-(2-hydroxy-4-(trifluoromethyl)phenyl)-1H-imidazol-1-yl)-N-methyl-4-(methylamino)benzamide], the EC50 stood at 45.6 ± 3.15 nM. Against the preceding compound, the EC50 is about 2.5-fold lower.

Turning to `CNc1ccc([N+](=O)[O-])cc1-n1cnc(-c2ccc(C(F)(F)F)cc2OC(=O)/C=C/c2ccccc2)c1` [Compound 39, (1-(2-(methylamino)-5-nitrophenyl)-1H-imidazol-4-yl)-5-(trifluoromethyl)phenyl cinnamate], a half-maximal response (EC50) required 12 ± 2.67 nM.

On to `CNc1ccc([N+](=O)[O-])cc1-n1cnc(-c2ccc(C(F)(F)F)cc2OCCOCCOCCI)c1` [Compound 41, 2-(4-(2-(2-(2-(2-iodoethoxy)ethoxy)ethoxy)-4-(trifluoromethyl)phenyl)-1H-imidazole-1-yl)-N-methyl-4-nitroaniline], for which the EC50 is greater than 1000 nM.

On to `FC(F)(F)c1ccc(-c2csc(-c3cc(C(F)(F)F)cc(C(F)(F)F)c3)n2)cc1` [Compound 7, 2-(3,5-bis(trifluoromethyl)phenyl)-4-(4-(trifluoromethyl)phenyl)thiazole], for which the “TLR1/2 activation activity EC50” value is “NA[†]”.

Compound `CCCCCCCC(=O)Oc1cc(C(F)(F)F)ccc1-c1cn(-c2cc([N+](=O)[O-])ccc2NC)cn1` [Compound 36, 2-(1-(2-(methylamino)-5-nitrophenyl)-1H-imidazol-4-yl)-5-(trifluoromethyl)phenyl octanoate] displayed an EC50 of 56.3 ± 7.31 nM.

On to `CCOc1cc(C(F)(F)F)ccc1-c1cn(-c2cc([N+](=O)[O-])ccc2NC)cn1` [Compound 29, 2-(4-(2-ethoxy-4-(trifluoromethyl)phenyl)-1H-imidazol-1-yl)-N-methyl-4-nitroaniline], for which the EC50 is greater than 1000 nM.

As for `CNc1ccc([N+](=O)[O-])cc1-n1cnc(-c2ccc(C(F)(F)F)cc2OC(=O)c2ccccc2)c1` [Compound 38, 2-(1-(2-(methylamino)-5-nitrophenyl)-1H-imidazol-4-yl)-5-(trifluoromethyl)phenyl benzoate], the midpoint of the response, the EC50, lay at 16.9 ± 2.79 nM.

Turning to `CNc1c(Cl)cc([N+](=O)[O-])cc1-n1cnc(-c2ccc(C#N)cc2)c1` [Compound 27, 4-(1-(3-chloro-2-(methylamino)-5-nitrophenyl)-1H-imidazol-4-yl)benzonitrile], the EC50 is greater than 1000 nM.

The compound `CNc1ccc([N+](=O)[O-])cc1-n1cnc(-c2ccc(C(F)(F)F)cc2OC)c1` [Compound 28, 2-(4-(2-methoxy-4-(trifluoromethyl)phenyl)-1H-imidazol-1-yl)-N-methyl-4-nitroaniline] registered an EC50 of 92.3 ± 12.3 nM.

`CNc1ccc([N+](=O)[O-])cc1-n1cnc(-c2ccc(C(F)(F)F)cc2O)c1` [Compound 22, 2-(1-(2-(methylamino)-5-nitrophenyl)-1H-imidazol-4-yl)-5-(trifluoromethyl)phenol] had an EC50 of 4.88 ± 0.79 nM.

`FC(F)(F)c1ccc(-c2csc(-c3ccccc3)n2)cc1` [Compound 3, 2-phenyl-4-(4-(trifluoromethyl)phenyl)thiazole] gave an EC50 greater than 1000 nM.

As for `CNc1ccc([N+](=O)[O-])cc1-n1cnc(-c2ccc(C(F)(F)F)cc2OCCOCCO)c1` [Compound 34, 2-(2-(2-(1-(2-(methylamino)-5-nitrophenyl)-1H-imidazol-4-yl)-5-(trifluoromethyl)phenoxy)ethoxy)ethanol], the EC50 is greater than 1000 nM.

`CNc1ccc([N+](=O)[O-])cc1-n1cnc(-c2ccc(C(F)(F)F)cc2OCCNC(=O)CCCC[C@@H]2SC[C@@H]3NC(=O)N[C@@H]32)c1` [Compound 44, N-(2-(2-(1-(2-(methylamino)-5-nitrophenyl)-1H-imidazol-4-yl)-5-(trifluoromethyl)phenoxyl)ethyl)-5-((3AS,4S,6AR)-2-oxohexahydro-1H-thieno[3,4-d]imidazol-4-yl)pentanamide] showed an EC50 of 764 ± 10.2 nM.

`CNc1ccc([N+](=O)[O-])cc1-n1cnc(-c2ccc(C(F)(F)F)cc2OCCBr)c1` [Compound 31, 2-(4-(2-(2-bromoethoxy)-4-(trifluoromethyl)phenyl)-1H-imidazol-1-yl)-N-methyl-4-nitroaniline] gave a 50% effective concentration (EC50) greater than 1000 nM.

As to `Oc1cc(C(F)(F)F)ccc1-c1csc(-c2ccccc2)n1` [Compound 13, 2-(2-phenylthiazol-4-yl)-5-(trifluoromethyl)phenol], the “TLR1/2 activation activity EC50” value is “NA[†]”.

`CNc1ccc(C(=O)OC)cc1-n1cnc(-c2ccc(C(F)(F)F)cc2O)c1` [Compound 24, Methyl 3-(4-(2-hydroxy-4-(trifluoromethyl)phenyl)-1H-imidazol-1-yl)-4-(methylamino)benzoate] came in with an EC50 of 432.86 ± 0.05 nM.

As to `Oc1cc(C(F)(F)F)ccc1-c1csc(-c2cccc(C(F)(F)F)c2)n1` [Compound 14, 5-(trifluoromethyl)-2-(2-(3-(trifluoromethyl)phenyl)thiazol-4-yl)phenol], the “TLR1/2 activation activity EC50” value was “NA[†]”.

The experiment is the same for the next values; noted with them: even at a low concentration (15 nM).
Turning to `CNc1ccc([N+](=O)[O-])cc1-n1cnc(-c2ccc(C(F)(F)F)cc2O)c1` [Compound 22, 2-(1-(2-(methylamino)-5-nitrophenyl)-1H-imidazol-4-yl)-5-(trifluoromethyl)phenol], the “signal intensity of TLR1/2 alkaline phosphatase (SEAP)” value was “significantly activate”.
